Assays:
Bemisia tabaci = experiment: dual-choice insect feeding assay on tomato leaf disks, whiteflies; type: in vivo
Description: (§1) The insects used in this study were the silverleaf whitefly Bemisia tabaci (genotype B) and the green peach aphid Myzus persicae. Whiteflies were reared on tomato (Moneymaker cultivar) in a greenhouse at 26° C., at 60% relative humidity with a photoperiod of 16 h light and 8 h dark. To perform the assays, adult flies of both genders were collected from leaves with an aspirator. They were cold-anesthetized at 7° C. in a 3 cm diameter plastic cylinder covered with Parafilm® for 5 min, before being released into the Petri dish at the start of the dual-choice assay, to ensure they would not fly out before the dishes were sealed. Apterous (without wings) aphid adults were collected from Chinese cabbage (Brassica rapa L. subspecies pekinensis), on which they had been reared at room temperature in ambient light. They were collected in 2 ml test tubes and starved for about 30 min before inoculating them in the dishes. […] The assays were carried on for either 18 or 24 h and the feeding insects counted at 30 min, 1 h, 2 h, 6 h, and 18 h for whiteflies and at 30 min, 1 h, 2 h, 6 h, and 24 h for aphids. […] To convert data from the concentration in ethanol, expressed as mg mL^−1, into concentration expressed as mg gFW^−1, the value must be multiplied by 15 (the volume in μL applied on each disk) and divided by 0.034 (mass of leaf disk in grams). […]

Myzus persicae = experiment: dual-choice insect feeding assay on tomato leaf disks, aphids; type: in vivo; conditions: for effect on feeding at the lowest concentration used: lowest concentration used (113 μg gFW^−1 for cinnamolide)
Description: as §1, with “dishes. In the dual-choice assays, insects were presented with circular tomato leaf areas coated with either 50% ethanol in water (control) or a solution of cinnamolide in 50% ethanol in water (treatment; two disks with each solution). Cinnamolide was firstly dissolved in 96% ethanol at a concentration of 2 mg mL^−1; subsequently an equal volume of water was added bringing the maximum concentration used to 1 mg mL^−1. Further dilutions were performed adding directly one volume of 50% ethanol in water to one volume of the previous concentration. The three concentrations used were therefore 1 mg mL^−1, 500 μg mL^−1 and 250 μg mL^−1.” for “dishes.”

[1] = 450, 225 and 113 μg gFW^−1, 6 h

Row | SMILES | Antifeedant Index (Al %), dose response (Bemisia tabaci; [1]) | attractant (phagostimulant) effect at the lowest concentration used (Bemisia tabaci; lowest concentration used (113 μg gFW^−1)) | Antifeedant Index (Al %), dose response (Myzus persicae; [1]) | effect on feeding at the lowest concentration used (Myzus persicae)
1 | CC1(C)CCC[C@]2(C)[C@H]3COC(=O)C3=CC[C@@H]12 [cinnamolide] | increases with the increasing concentrations applied | not seen | increases with the increasing concentrations applied | attractant (phagostimulant) effect
2 | CC1(C)CCC[C@]2(C)[C@@H](C=O)C(C=O)=CC[C@@H]12 [polygodial, reference compound] |  |  |  | attractant (phagostimulant) effect
